# Key:
# NMDAR/TRPM4 complex = molecular target: T1, NMDAR/TRPM4 complex (Mus musculus, UniProt Q7TN37); test: Co-immunoprecipitation of the NMDAR/TRPM4 complex from lumbar spinal cord lysates of treated animals; type: in vivo; details: two weeks after osmotic pump implantation
# T1 construct: Lumbar spinal cords were dissected from mice two weeks after ALZET osmotic pump (1002) implantation; from tissue; host or cells: lumbar spinal cord of wild-type mice treated in vivo with vehicle or FP802
# Experimental: A total of 83 heterozygous SOD1^G93A and 22 wild-type littermates were employed in this study. Eight WT and 12 SOD1^G93A mice were used to determine the EAAT2 protein levels in the spinal cord. Three SOD1^G93A mice were treated with FP802 to explore the concentration of FP802 in the spinal cord. Four SOD1^G93A mice were used to test the tolerability of mice to subcutaneously ALZET osmotic pump (type 2004) implantation with FP802 that allowed a continuous and constant supply of compound to the animals for 4 weeks. Eight wild-type mice were used to explore the disruption of the NMDAR/TRPM4 death signaling complex by FP802. In total, 52 SOD1^G93A mice were treated with FP802 or vehicle via ALZET osmotic pump from week 15 for 30 days (four cohorts). It was not possible to extend the treatment beyond the 30 days application period because the poor health state of many animals was incompatible with the anesthesia required for surgical implantation of a second osmotic pump. The number of animals used for experiments was specified in the figure legends. […]
# All procedures for immunoprecipitation were carried out at 4°C as described before.[20] […] Protein concentrations of the supernatants were measured using the Pierce BCA Protein Assay Kit. […]
# [1] = Serum clinical chemistry of treated SOD1G93A mice; type: in vivo, mouse; details: 40 mg/kg/day s.c. pump
# Experimental: All hematology and most serum clinical chemistry analyses were carried out by IDEXX Laboratories, Germany. The neurofilament light chain levels in serum were determined by PBL Assay Science (USA) using the Simoa NF-light Advantage Kit (Quanterix Cat #103186).
# Vehicle FP802 n Significance 95% Interval
# Table S3. Clinical chemistry serum parameters of SOD1G93A mice treated with vehicle or FP802.
# FP802 delivered with a subcutaneously implanted ALZET osmotic pump at 40 mg/kg/day for 4 weeks starting at
# References were from Charles River Laboratories datasheets for C57BL6 mice. Related to Figure 2.
# [2] = molecular target: T2, human GluN1/GluN2A NMDARs (Homo sapiens, UniProt Q05586+Q12879); test: Automated patch clamp, NMDARs in HEK293 cells; type: cell-based; details: +40 mV; glycine 100 μM plus NMDA 90 μM; stable HEK293
# T2 construct: host or cells: HEK293
# T2 sequence (Q12879 23-1464, other chains not shown): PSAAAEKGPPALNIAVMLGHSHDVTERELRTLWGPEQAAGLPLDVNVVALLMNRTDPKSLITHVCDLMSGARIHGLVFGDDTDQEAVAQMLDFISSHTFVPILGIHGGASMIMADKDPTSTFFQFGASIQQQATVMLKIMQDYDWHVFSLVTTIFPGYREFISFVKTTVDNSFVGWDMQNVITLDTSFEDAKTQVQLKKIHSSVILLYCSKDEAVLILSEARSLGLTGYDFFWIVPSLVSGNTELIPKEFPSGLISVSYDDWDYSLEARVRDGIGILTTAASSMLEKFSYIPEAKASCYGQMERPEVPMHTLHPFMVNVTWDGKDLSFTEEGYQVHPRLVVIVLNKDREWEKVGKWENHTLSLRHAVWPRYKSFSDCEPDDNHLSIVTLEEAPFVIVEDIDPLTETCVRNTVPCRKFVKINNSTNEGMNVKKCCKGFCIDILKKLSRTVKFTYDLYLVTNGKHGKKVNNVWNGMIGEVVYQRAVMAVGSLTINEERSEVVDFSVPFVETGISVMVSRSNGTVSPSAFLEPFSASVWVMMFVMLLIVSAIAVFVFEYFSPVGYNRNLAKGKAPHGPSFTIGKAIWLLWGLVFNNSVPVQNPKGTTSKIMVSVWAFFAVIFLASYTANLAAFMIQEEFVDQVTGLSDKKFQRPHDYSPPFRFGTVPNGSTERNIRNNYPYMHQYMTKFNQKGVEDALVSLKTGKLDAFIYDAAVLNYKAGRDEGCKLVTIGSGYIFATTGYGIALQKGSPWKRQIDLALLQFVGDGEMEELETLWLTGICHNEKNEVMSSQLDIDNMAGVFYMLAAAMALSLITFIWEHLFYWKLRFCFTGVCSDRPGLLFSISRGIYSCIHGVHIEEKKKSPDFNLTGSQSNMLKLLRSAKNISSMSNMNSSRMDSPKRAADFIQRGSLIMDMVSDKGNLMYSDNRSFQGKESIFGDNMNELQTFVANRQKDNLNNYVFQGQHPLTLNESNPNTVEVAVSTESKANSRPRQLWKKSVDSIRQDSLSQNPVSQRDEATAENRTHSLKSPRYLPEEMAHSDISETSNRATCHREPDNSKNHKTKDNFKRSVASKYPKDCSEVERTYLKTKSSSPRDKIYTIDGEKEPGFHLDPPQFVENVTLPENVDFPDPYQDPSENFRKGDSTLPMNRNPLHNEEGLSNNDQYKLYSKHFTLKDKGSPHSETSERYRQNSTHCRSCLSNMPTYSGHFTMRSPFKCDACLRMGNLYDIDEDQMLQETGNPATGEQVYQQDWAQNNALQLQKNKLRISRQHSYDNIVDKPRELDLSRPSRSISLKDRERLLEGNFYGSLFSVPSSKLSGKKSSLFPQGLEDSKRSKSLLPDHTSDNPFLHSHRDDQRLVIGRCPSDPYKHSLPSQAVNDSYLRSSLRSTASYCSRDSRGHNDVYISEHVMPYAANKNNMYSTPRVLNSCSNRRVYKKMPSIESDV
# Experimental: (§1) Recombinant human GluN1 (UniProt ID Q05586) with GluN2A (Uniprot Q12879) or GluN2B (Uniprot Q13224) NMDARs were stably expressed under tetracycline control in HEK293 cell lines (Charles River). Voltage-clamp recordings were performed using the Sophion Qube platform which performs 384 parallel and independent patch-clamp recordings with digitally controlled microfluidics (Tecan D300) on a disposable single-hole or multi-hole QChip. The following extracellular solution was used: 145 mM NaCl, 4 mM KCl, 10 mM HEPES, 10 mM glucose, 2 mM CaCl2, 1 mM MgCl2; pH 7.4. The following intracellular solution was used: 70 mM CsF, 70 mM CsCl, 10 mM HEPES, 1 mM EGTA; 316 mOsm, pH 7.2. For analysis of channel activation kinetics, cells were held at −70 mV and stepped to −20 mV before the application of glycine (100 μM) plus NMDA (90 μM for GluN1/GluN2A and 40 μM for GluN1/GluN2B). […] Quality control thresholds were set according to the seal resistance (minimum […]), and failed experiments were excluded from the analysis. For analysis of steady state agonist IC50 values, voltage steps to +40 mV were performed in the presence and absence of agonists before and after compound application in the same cell. IC50 data were generated from agonist responses as described before.[20]
# (§2) Figure S1. Analysis of IC50 values of FP802 for NMDARs in HEK293 cells. […] The effects of FP802 on NMDARs were evaluated at +40 […]
# [3] = molecular target: T3, human GluN1/GluN2B NMDARs (Homo sapiens, UniProt Q05586+Q13224); test: Automated patch clamp, NMDARs in HEK293 cells; type: cell-based; details: +40 mV; glycine 100 μM plus NMDA 40 μM; stable HEK293
# T3 construct: host or cells: HEK293
# T3 sequence (Q13224 27-1484, other chains not shown): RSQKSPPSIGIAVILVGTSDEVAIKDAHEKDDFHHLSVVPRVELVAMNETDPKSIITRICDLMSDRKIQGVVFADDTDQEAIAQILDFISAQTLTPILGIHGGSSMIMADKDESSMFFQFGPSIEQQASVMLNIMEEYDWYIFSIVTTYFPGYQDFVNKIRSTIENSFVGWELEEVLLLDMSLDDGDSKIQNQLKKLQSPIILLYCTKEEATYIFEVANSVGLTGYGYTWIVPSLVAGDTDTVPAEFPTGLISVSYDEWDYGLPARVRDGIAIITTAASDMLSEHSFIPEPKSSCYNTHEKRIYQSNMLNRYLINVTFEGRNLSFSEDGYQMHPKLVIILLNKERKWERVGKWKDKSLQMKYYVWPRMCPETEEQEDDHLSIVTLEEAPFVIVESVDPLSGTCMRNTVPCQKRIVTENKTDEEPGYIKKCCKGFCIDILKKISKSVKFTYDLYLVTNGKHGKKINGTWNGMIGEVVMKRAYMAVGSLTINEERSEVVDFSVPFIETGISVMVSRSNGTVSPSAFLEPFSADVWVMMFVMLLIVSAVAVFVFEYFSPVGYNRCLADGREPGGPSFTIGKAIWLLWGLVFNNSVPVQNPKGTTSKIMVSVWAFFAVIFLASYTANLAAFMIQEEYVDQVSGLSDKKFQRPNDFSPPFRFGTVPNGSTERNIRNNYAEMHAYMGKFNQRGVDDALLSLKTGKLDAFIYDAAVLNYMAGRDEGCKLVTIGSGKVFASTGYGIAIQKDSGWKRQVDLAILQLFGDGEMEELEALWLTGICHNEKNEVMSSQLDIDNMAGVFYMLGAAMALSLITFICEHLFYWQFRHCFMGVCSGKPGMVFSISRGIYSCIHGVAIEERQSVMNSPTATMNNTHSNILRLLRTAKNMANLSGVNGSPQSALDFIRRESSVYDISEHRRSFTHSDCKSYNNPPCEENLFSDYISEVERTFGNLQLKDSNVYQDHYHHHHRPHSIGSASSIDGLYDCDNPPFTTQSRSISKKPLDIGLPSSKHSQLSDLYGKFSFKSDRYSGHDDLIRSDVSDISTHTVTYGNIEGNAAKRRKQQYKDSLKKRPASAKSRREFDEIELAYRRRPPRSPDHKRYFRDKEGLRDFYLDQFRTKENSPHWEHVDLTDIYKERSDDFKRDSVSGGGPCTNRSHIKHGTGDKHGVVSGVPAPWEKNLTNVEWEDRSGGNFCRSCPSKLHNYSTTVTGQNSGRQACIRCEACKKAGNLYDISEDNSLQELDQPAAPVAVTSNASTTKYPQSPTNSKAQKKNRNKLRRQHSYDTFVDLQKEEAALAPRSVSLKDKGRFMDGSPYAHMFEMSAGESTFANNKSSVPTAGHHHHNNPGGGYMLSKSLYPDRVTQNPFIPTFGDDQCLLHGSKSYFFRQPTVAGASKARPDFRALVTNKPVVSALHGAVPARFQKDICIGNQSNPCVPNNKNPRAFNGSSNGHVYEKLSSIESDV
# Experimental: as §1, §2
# T1 sequence (Q7TN37 whole entry, one chain of several): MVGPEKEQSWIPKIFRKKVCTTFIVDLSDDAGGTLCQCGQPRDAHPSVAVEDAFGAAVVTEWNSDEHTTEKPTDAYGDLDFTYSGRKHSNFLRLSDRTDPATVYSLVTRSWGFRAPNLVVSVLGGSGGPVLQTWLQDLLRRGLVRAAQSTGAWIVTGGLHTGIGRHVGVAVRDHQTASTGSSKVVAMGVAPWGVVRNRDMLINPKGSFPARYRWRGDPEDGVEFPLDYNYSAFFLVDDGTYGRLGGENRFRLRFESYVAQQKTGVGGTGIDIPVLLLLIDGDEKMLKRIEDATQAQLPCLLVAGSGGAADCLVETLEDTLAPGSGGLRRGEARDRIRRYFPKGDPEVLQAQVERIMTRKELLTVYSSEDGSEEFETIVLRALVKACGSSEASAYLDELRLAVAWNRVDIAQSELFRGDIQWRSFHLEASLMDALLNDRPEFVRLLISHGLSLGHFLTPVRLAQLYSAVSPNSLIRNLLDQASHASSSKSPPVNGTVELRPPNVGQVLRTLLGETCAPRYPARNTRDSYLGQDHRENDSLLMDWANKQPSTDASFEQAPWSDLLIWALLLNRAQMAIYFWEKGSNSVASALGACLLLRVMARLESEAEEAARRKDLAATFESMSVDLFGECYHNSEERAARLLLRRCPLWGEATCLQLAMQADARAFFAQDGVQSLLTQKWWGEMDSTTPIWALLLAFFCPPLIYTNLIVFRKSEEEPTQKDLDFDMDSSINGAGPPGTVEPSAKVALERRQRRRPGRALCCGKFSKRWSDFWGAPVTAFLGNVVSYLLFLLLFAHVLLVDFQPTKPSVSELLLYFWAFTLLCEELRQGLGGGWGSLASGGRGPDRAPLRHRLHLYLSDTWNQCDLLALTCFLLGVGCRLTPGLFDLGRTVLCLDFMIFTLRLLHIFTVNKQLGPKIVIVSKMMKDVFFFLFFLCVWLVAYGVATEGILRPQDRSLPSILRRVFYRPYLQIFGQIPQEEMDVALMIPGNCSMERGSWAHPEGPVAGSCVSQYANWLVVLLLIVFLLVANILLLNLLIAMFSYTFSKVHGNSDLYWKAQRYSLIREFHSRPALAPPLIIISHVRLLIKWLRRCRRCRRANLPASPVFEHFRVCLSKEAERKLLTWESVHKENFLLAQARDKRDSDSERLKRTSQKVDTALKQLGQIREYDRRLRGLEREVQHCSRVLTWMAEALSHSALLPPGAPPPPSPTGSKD
compound,measurement,setting,value
CCN(CCN)Cc1cccc(Cl)c1 [FP802],interaction of TRPM4 with the NMDAR subunit GluN2B (co-immunoprecipitation),NMDAR/TRPM4 complex,disrupted
same,adverse effects on the serum clinical chemistry parameters,[1]; 4 weeks,no adverse effects
same,ALT,"[1]; serum, 4 weeks",32.60 ± 8.30 U/L
same,AST,"[1]; serum, 4 weeks",195.20 ± 147.29 U/L
same,Alkaline phosphatase,"[1]; serum, 4 weeks",69.40 ± 6.84 U/L
same,Calcium,"[1]; serum, 4 weeks",2.35 ± 0.06 mmol/L
same,Chloride,"[1]; serum, 4 weeks",111.20 ± 3.03 mmol/L
same,Cholesterol,"[1]; serum, 4 weeks",2.68 ± 0.60 mmol/L
same,Creatine kinase,"[1]; serum, 4 weeks",1500 ± 1475 U/L
same,Creatinine,"[1]; serum, 4 weeks",9.00 ± 2.16 µmol/L
same,GGT,"[1]; serum, 4 weeks",Not detectable
same,Inorganic phosphate,"[1]; serum, 4 weeks",3.26 ± 0.18 mmol/L
same,LDH,"[1]; serum, 4 weeks",813.3 ± 474.5 U/L
same,Lipase,"[1]; serum, 4 weeks",32.80 ± 4.15 U/L
same,Potassium,"[1]; serum, 4 weeks",9.02 ± 3.83 mmol/L
same,Sodium,"[1]; serum, 4 weeks",149.6 ± 3.9 mmol/L
same,Total protein,"[1]; serum, 4 weeks",50.00 ± 0.71 g/L
same,Triglycerides,"[1]; serum, 4 weeks",0.48 ± 0.13 g/L
same,Urea (BUN),"[1]; serum, 4 weeks",7.58 ± 1.32 mmol/L
same,Albumin,"[1]; serum, 4 weeks from 15 weeks of age",28.00 ± 1.00 g/L
same,IC50,[2],> 250 µM
same,IC50,[3],> 250 µM
